Marks after values point to notes of the source that are not given here.
System: Patients with BPH
Experiment: Double-blind clinical study: intraprostatic injection in patients with BPH, symptoms evaluated by International Prostate Symptom Score (IPSS)
Format: in vivo, human
From the text: The International Prostate Symptom Score (I-PSS) is based on the answers to seven questions concerning urinary symptoms and one question concerning quality of life. Each question concerning urinary symptoms allows the patient to choose one out of six answers indicating increasing severity of the particular symptom. The answers are assigned points from 0 to 5. The total score can therefore range from 0 to 35 (asymptomatic to very symptomatic). The questions refer to the following urinary symptoms:
Patients with BPH were given an intraprostatic injection of either a) SEQ ID NO. 66 (Ile-Asp-Gln-Gln-Val-Leu-Ser-Arg-Ile-Lys-Leu-Glu-Ile-Lys-Arg-Cys-Leu) in phosphate buffered saline pH 7.2 (“PBS”) or b) PBS alone, under double-blind conditions by a urologist in an office setting under ultrasound guidance. Patients were followed for 1 to 6 years with regular physical examinations, laboratory tests, and evaluations of symptoms. Symptomatic evaluation was measured by the International Prostate Symptom Score (IPSS) which is a quantitative scale used to gauge prostatic symptomatic improvement or worsening. The IPSS quantifies the following: 1) incomplete bladder emptying after urination; 2) frequent urination; 3) stopping and starting during urination; 4) urgent need to urinate; 5) weakness of urinary stream; 6) need to push or strain during urination; 7) need to urinate after going to sleep at night (nocturia). The difference from baseline IPSS was compared in all patients who were given an intraprostatic injection of SEQ ID NO. 66 to the difference from baseline IPSS in patients who received PBS alone. […] 66 treated patients, there was also an unexpected decrease in the incidence of worsening and progression in symptoms in patients treated with SEQ ID NO. 66.
Patients with BPH were given an intraprostatic injection of either a) SEQ ID NO. 66 in phosphate buffered saline pH 7.2 (“PBS”) or b) PBS alone, under double-blind conditions by a urologist in an office setting under ultrasound guidance. Subsequently, 326 placebo and SEQ ID NO. 66 treated subjects were administered an intraprostatic injection of SEQ ID NO. 66 (2.5 mg). Patients were followed for 1 to 6 years with physical examinations, laboratory tests, and evaluations of symptoms. Symptomatic evaluation was measured by the International Prostate Symptom Score (IPSS) which is a quantitative scale used to gauge prostatic symptomatic improvement or worsening. The IPSS quantifies the following: 1) incomplete bladder emptying after urination; 2) frequent urination; 3) stopping and starting during urination; 4) urgent need to urinate; 5) weakness of urinary stream; 6) need to push or strain during urination; 7) need to urinate after going to sleep at night (nocturia). The difference from baseline IPSS was compared in placebo patients who subsequently received SEQ ID NO. 66 vs results in patients who received PBS alone. […] 66 treated patients there was also an unexpected decrease in the incidence of worsening or lack of improvement in symptoms in patients treated with SEQ ID NO. 66.
Patients with BPH were given an intraprostatic injection of either a) SEQ ID NO. 66 in phosphate buffered saline pH 7.2 (“PBS”) or b) PBS alone, under double-blind conditions by a urologist in an office setting under ultrasound guidance. Subsequently, 326 subjects were given an intraprostatic injection of SEQ ID NO. 66 (2.5 mg). Symptomatic evaluation was measured by the International Prostate Symptom Score (IPSS) which is a quantitative scale used to gauge prostatic symptomatic improvement or worsening. The IPSS quantifies the following: 1) incomplete bladder emptying after urination; 2) frequent urination; 3) stopping and starting during urination; 4) urgent need to urinate; 5) weakness of urinary stream; 6) need to push or strain during urination; 7) need to urinate after going to sleep at night (nocturia). […]

## IDQQVLSRIKLEIKRCL [SEQ ID NO: 66, NTP peptide Ile-Asp-Gln-Gln-Val-Leu-Ser-Arg-Ile-Lys-Leu-Glu-Ile-Lys-Arg-Cys-Leu, injected intraprostatically in phosphate buffered saline pH 7.2]
Example 1: all patients given one intraprostatic injection of SEQ ID NO. 66 in PBS, followed 1 to 6 years, p < .02 vs PBS alone
  Percentage of worsening of IPSS: 13.1%*
Example 2: placebo patients who subsequently received intraprostatic SEQ ID NO. 66 (2.5 mg), followed 1 to 6 years, p < 0.0001 vs PBS alone
  Percentage of worsening of IPSS or no improvement in IPSS: 17.3%*
Example 3: patients who received two intraprostatic injections of SEQ ID NO. 66 (second 2.5 mg), p < 0.0001 vs PBS alone
  Percentage of worsening of IPSS or no improvement in IPSS: 17.6%*
Example 4: all placebo and SEQ ID NO. 66 treated patients subsequently given intraprostatic SEQ ID NO. 66 (2.5 mg), followed 1 to 6 years, p < .0001 vs PBS alone
  Percentage of worsening of IPSS or no improvement of IPSS: 17.5%*
Example 5: placebo patients who subsequently received intraprostatic SEQ ID NO. 66 (2.5 mg), followed 1 to 6 years, p < 0.0001 vs PBS alone
  Percentage of worsening of IPSS: 9.0%*
Example 6: patients who received SEQ ID NO. 66 and subsequently SEQ ID NO. 66 (2.5 mg) intraprostatic, followed 1 to 6 years, p < 0.05 vs PBS alone
  Percentage of worsening of IPSS: 13.5%*
Example 7: all placebo and SEQ ID NO. 66 treated patients subsequently given intraprostatic SEQ ID NO. 66 2.5 mg, followed 1 to 6 years, p < .0001 vs PBS alone
  Percentage of worsening of IPSS: 11.7%*
Example 8: patients given one intraprostatic injection of SEQ ID NO. 66 in PBS, followed 1 to 6 years, p < .003 vs PBS alone
  Percentage of worsening of IPSS or no improvement of IPSS: 36.4%*
SEQ ID NO. 66 patients subsequently treated with SEQ ID NO. 66 (two injections)
  improvement of symptoms (difference from baseline IPSS) compared to PBS alone: more improvement
All placebo and SEQ ID NO. 66 treated patients subsequently treated with SEQ ID NO. 66 (2.5 mg)
  improvement of symptoms (difference from baseline IPSS) compared to PBS alone: more improvement
One intraprostatic injection of SEQ ID NO. 66, followed 1 to 6 years
  improvement of symptoms (difference from baseline IPSS) compared to PBS alone: more improvement
Placebo patients subsequently treated with SEQ ID NO. 66 (2.5 mg)
  improvement of symptoms (difference from baseline IPSS) compared to PBS alone: more improvement

Source: US10532081B2, “Method of ameliorating or preventing the worsening or the progression of symptoms of BPH” (Nymox Corporation, priority 2016, dated 2020)
